Measured values from patent US9834520B2, “Heterocyclic compound” (TAKEDA PHARMACEUTICAL COMPANY LIMITED, priority 2013, dated 2017).
Like-named read-outs stand apart in the source and are kept apart here.

Assays:
Th17 cells = assay: Mouse Th17 cell differentiation test (IL-17A by ELISA); format: cell-based; conditions: 96 h, 10 μM of test compound, IL-17A in culture supernatant, 4 days, read-out: inhibitory rate(%)
Method: Mouse Th17 Cell Differentiation Test
CD4 positive naive T cells were collected from the spleen cells of Balb/c mice (female, 8-11w) using CD4+CD62L+ T Cell Isolation kit II (Miltenyi Biotec). The CD4 positive naive T cells was plated in a 96 well plate (3×10^5 cells/well), and stimulated (37° C. for culture) with anti-mouse CD3ε antibody (10 μg/mL, solid phase) and anti-CD28 antibody (5 μg/mL) for 4 days in the presence of anti-IFN-γ antibody, anti-IL-4 antibody, anti-IL-2 antibody, IL-6, TGF-β and IL-23 to differentiate into Th17 cells. The compound was dissolved in DMSO and then added thereto. The cells were cultured under these conditions for 4 days, and differentiation of the Th17 cells was evaluated by using the concentration of IL-17A, which was measured by ELISA, in the culture supernatant obtained by centrifugation.

human PBMC = assay: IL17 production test in human PBMC; format: cell-based; conditions: 72 h, 10 μM of test compound, IL-17A in culture supernatant, 3 days, read-out: inhibitory rate (%)
Method: IL17 Production Test in Human PBMC
Peripheral blood mononuclear cells (PBMC) collected from human peripheral blood by a density gradient centrifugation method were stimulated by Dynabeads (registered trade mark; anti-CD3/CD28 antibody) and cultured at 37° C. for 3 days. The test compound was dissolved in DMSO and then added thereto. After culture for 3 days under such conditions, the concentration of IL-17A in the culture supernatant obtained by centrifugation was measured by ELISA to evaluate the effect of the compound on IL-17 production.

RORγt [1] = target: T1, RORγt (Homo sapiens, UniProt P51449); assay: RORγt binding test (TR-FRET, fluorescent-labeled cholesterol); conditions: binding inhibitory rate of fluorescent-labeled cholesterol to RORγt at test compound 1 μM
T1 sequence (P51449 1-497 isoform P51449-2): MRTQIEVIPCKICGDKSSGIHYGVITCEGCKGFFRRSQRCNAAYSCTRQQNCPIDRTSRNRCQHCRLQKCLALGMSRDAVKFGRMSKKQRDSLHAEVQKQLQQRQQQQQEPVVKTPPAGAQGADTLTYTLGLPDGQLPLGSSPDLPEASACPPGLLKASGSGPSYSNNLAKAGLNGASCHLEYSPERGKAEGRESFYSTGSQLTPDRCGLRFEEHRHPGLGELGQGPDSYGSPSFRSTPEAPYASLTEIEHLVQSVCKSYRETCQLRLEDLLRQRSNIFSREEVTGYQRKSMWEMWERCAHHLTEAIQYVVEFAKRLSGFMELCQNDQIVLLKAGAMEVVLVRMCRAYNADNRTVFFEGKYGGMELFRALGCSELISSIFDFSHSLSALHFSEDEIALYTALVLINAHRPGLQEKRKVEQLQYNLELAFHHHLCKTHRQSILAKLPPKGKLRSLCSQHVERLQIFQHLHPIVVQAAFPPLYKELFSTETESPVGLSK
Method: The binding activity of the test compound to RORγt was measured by a time resolved fluorescence resonance energy transfer method (TR-FRET) utilizing histidine-tagged RORγt, fluorescent-labeled cholesterol (BODIPY-cholesterol, AVIVA) and terbium-labeled anti-histidine tag antibody (Invitrogen). First, a test compound diluted with an assay buffer (20 mM Tris-HCl (pH 7.5), 100 mM NaCl, 1 mM DTT, 0.1% BSA) was added to a 384 well plate by 3 μL each. Then, RORγt diluted with an assay buffer to 240 nM was added by 3 μL each, after which fluorescent-labeled cholesterol diluted with the assay buffer to 12 μM was added by 3 μL each, and the mixture was stood at room temperature for 20 min. Thereafter, a terbium-labeled anti-histidine tag antibody diluted with the assay buffer to 8 nM was added by 3 μL each. The mixture was stood at room temperature for 20 min, and fluorescence intensity (excitation wavelength 320 nm, fluorescence wavelength 520 nm, delay time 100 microseconds) was measured by Envision (PerkinElmer).

RORγt [2] = target: T1, RORγt; assay: Cofactor recruitment test (Alpha Screen, biotinylated SRC-1 peptide); format: biochemical; conditions: test compound 1 μM; read-out: signal value inhibitory rate (%)
Method: Cofactor Recruitment Test
Cofactor recruitment test was performed by Alpha Screen (Histidine Detection Kit, PerkinElmer) method. First, a test compound diluted with an assay buffer (50 mM Tris-HCl (pH 7.5), 50 mM KCl, 1 mM DTT, 0.1% BSA) was added to a 384 well plate by 5 μL each. […] The mixture was stood in a dark place for 1 hr, and the signal value was measured by Envision (PerkinElmer).

RORγt [3] = target: T1, RORγt; assay: Jurkat reporter test (IL-17 ROR response element luciferase); format: cell-based; set-up: expressed in transfected cells; host or cells: Jurkat cells; conditions: test compound 3 μM, Jurkat cells, read-out: luminescence level inhibitory rate (%)
Method: The Jurkat cells used for the reporter test were cultured in a culture medium (RPMI (Invitrogen), 10% FCS (AusGeneX), 100 U/mL penicillin, 100 μg/mL streptomycin). On the day of the test, 4×10^7 cells were recovered by a centrifugal operation (1000 rpm, 5 min.) and suspended in PBS (phosphate buffered saline) (Invitrogen). Thereafter, the cells were recovered again by a centrifugal operation, and suspended in 2 mL of R buffer (NEON transfection kit, Invitrogen). […] Gene transfer was performed by Electroporation apparatus (NEON, Invitrogen) under the conditions of pulse voltage 1350 V, interval 10 milliseconds, number of times 3. The cells after gene transfer were suspended in 40 mL of a reaction medium (RPMI, 10% Lipid reduced FCS (HyClone), 10 mM HEPES (pH 7.5), 100 U/mL penicillin, 100 μg/mL streptomycin, 5 μM lovastatin), and plated in a 96 well plate by 90 μL each. A test compound diluted with the reaction medium was added by 10 μL each, and the cells were cultured overnight in an incubator. Bright-Glo (Promega) was added by 100 μL each, and the mixture was stirred at room temperature for 10 min, and the luminescence level was measured by Envision (PerkinElmer).

SMILES | inhibition at 10 µM (Th17 cells) [%] | inhibition at 10 µM (human PBMC) [%] | inhibition at 1 µM (RORγt [1]) [%] | inhibition at 1 µM (RORγt [2]) [%] | inhibition at 3 µM (RORγt [3]; Jurkat) [%] | inhibition at 3 µM (RORγt [3]) [%]
CC(CC(=O)Nc1ccc(C#N)c(Cl)c1)CC(=O)Nc1ccc2c(c1)c(=O)n(CC1CC1)c(=O)n2CC1CC1 (centres unmarked) [Example 2, N-(1,3-bis(cyclopropylmethyl)-2,4-dioxo-1,2,3,4-tetrahydroquinazolin-6-yl)-N′-(3-chloro-4-cyanophenyl)-3-methylpentanediamide] | 97 | 96 |  |  |  | 
CCn1c(=O)c2cc(C(=O)NCC(C)CC(=O)Nc3ccc(C#N)c(Cl)c3)ccc2n(CC)c1=O (centres unmarked) [Example 4, N-(4-((3-chloro-4-cyanophenyl)amino)-2-methyl-4-oxobutyl)-1,3-diethyl-2,4-dioxo-1,2,3,4-tetrahydroquinazoline-6-carboxamide] |  | 97 | 96.7 | 105 | 116 | 
CCC1Oc2cc(NC(=O)CC(C)CC(=O)Nc3ccc(C#N)c(Cl)c3)ccc2N(CC)C1=O (centres unmarked) [Example 7, N-(3-chloro-4-cyanophenyl)-N′-(2,4-diethyl-3-oxo-3,4-dihydro-2H-1,4-benzoxazin-7-yl)-3-methylpentanediamide] |  | 100 |  |  |  | 
CCN1C(=O)C(c2ccccc2)Oc2cc(NC(=O)CC(C)CC(=O)Nc3ccc(C#N)c(Cl)c3)ccc21 (centres unmarked) [Example 12, N-(3-chloro-4-cyanophenyl)-N′-(4-ethyl-3-oxo-2-phenyl-3,4-dihydro-2H-1,4-benzoxazin-7-yl)-3-methylpentanediamide] | 97 | 97 | 98.3 | 104 | 120 | 
CCn1c(=O)c2cc(C(=O)NCC(CC(=O)Nc3ccc(C#N)c(Cl)c3)C(C)C)ccc2n(CC)c1=O (centres unmarked) [Example 17, N-(4-((3-chloro-4-cyanophenyl)amino)-2-isopropyl-4-oxobutyl)-1,3-diethyl-2,4-dioxo-1,2,3,4-tetrahydroquinazoline-6-carboxamide] |  | 84 | 101 | 103 | 121 | 
CCn1c(=O)c2cc(NC(=O)CC(C)CNC(=O)c3ccc(C#N)c(Cl)c3)ccc2n(CC)c1=O (centres unmarked) [Example 23, 3-chloro-4-cyano-N-(4-((1,3-diethyl-2,4-dioxo-1,2,3,4-tetrahydroquinazolin-6-yl)amino)-2-methyl-4-oxobutyl)benzamide] | 94 |  | 97.3 | 104 |  | 115
CCn1c(=O)c2cc(NC(=O)CC(C)CC(=O)Nc3ccc(C#N)c(Cl)c3)ccc2n(C[Si](C)(C)C)c1=O (centres unmarked) [Example 126, N-(3-chloro-4-cyanophenyl)-N′-(3-ethyl-2,4-dioxo-1-((trimethylsilyl)methyl)-1,2,3,4-tetrahydroquinazolin-6-yl)-3-methylpentanediamide] |  |  | 103 | 100 | 102 | 
CCn1c(=O)c2cc(NC(=O)CC(C)CC(=O)Nc3ccc(C#N)c(Cl)c3)cc(F)c2n(CC)c1=O (centres unmarked) [Example 129, N-(3-chloro-4-cyanophenyl)-N′-(1,3-diethyl-8-fluoro-2,4-dioxo-1,2,3,4-tetrahydroquinazolin-6-yl)-3-methylpentanediamide] |  |  | 100 | 100 | 102 | 
CCn1c(=O)c2cc(NC(=O)CC(C)CC(=O)Nc3ccc(C#N)c(Cl)c3)c(F)cc2n(CC)c1=O (centres unmarked) [Example 130, N-(3-chloro-4-cyanophenyl)-N′-(1,3-diethyl-7-fluoro-2,4-dioxo-1,2,3,4-tetrahydroquinazolin-6-yl)-3-methylpentanediamide] |  |  | 101 | 102 | 101 | 
CCn1c(=O)n(CC2CC2)c(=O)c2cc(NC(=O)CC[C@@H](O)C(=O)Nc3ccc(C#N)c(Cl)c3)ccc21 [Example 138, (2R)—N^1-(3-chloro-4-cyanophenyl)-N^5-(3-(cyclopropylmethyl)-1-ethyl-2,4-dioxo-1,2,3,4-tetrahydroquinazolin-6-yl)-2-hydroxypentanediamide] |  |  | 104 | 100 | 104 | 
CCn1c(=O)n(CC2CC2)c(=O)c2cc(NC(=O)CC[C@H](O)C(=O)Nc3ccc(C#N)c(Cl)c3)ccc21 [Example 139, (2S)—N^1-(3-chloro-4-cyanophenyl)-N^5-(3-(cyclopropylmethyl)-1-ethyl-2,4-dioxo-1,2,3,4-tetrahydroquinazolin-6-yl)-2-hydroxypentanediamide] |  |  | 102 | 102 | 104 | 
CCn1c(=O)n(CC2CC2)c(=O)c2cc(NC(=O)[C@@H](O)CCC(=O)Nc3ccc(C#N)c(Cl)c3)ccc21 [Example 141, (2S)—N^5-(3-chloro-4-cyanophenyl)-N^1-(3-(cyclopropylmethyl)-1-ethyl-2,4-dioxo-1,2,3,4-tetrahydroquinazolin-6-yl)-2-hydroxypentanediamide] |  |  | 102 | 102 | 103 | 
